Measurements published in patent US7825226B2, “Glycoprotein synthesis” (The Scripps Research Institute, priority 2002, dated 2010).

Columns and labels:
[1] = system: Bandeiraea simplicifolia II (BSII); assay: ELISA-like assay of binding of a GlcNAc-specific lectin; details: 200 ng immobilized protein, absorbance at 405 nm
Method: Several additional experiments were performed to further characterize the mutant myoglobin. First, an ELISA-like assay was used to analyze the binding of a GlcNAc-specific lectin, Bandeiraea simplicifolia II (BSII) (see, e.g., S. Ebisu, et al., (1978), Carbohydr. Res. 61:129), to wild-type myoglobin and glyco-myoglobin. See FIG. 6, Panel A. FIG. 6, Panel A illustrates binding of a GlcNAc-specific lectin, Banderiraea simplicifolia II (BSII), to wild-type myoglobin and glycomyoglobin. A405 values are shown for wild-type myoglobin, glycomyoglobin, and negative control (no lectin added). Gly4→Compound A mutant myoglobin (200 ng) and wild type myoglobin (200 ng) were immobilized in microtiter plate wells and subsequently incubated with biotinylated BSII and streptavidin-alkaline phosphatase conjugate. Wells were incubated with p-nitrophenyl phosphate and monitored by measuring the absorbance at 405 nm. The two forms of myoglobin were immobilized in microtiter plate wells and then incubated with biotinylated BSII, streptavidin-alkaline phosphatase conjugate, and p-nitrophenyl phosphate, respectively.
(§1) Expression and characterization of mutant myoglobin. […] Proteins were analyzed by 12% SDS-PAGE and silver-stained. […]

[2] = target: T1, bovine milk galactosyltransferase (Bos taurus, UniProt P08037); assay: on-blot galactosyltransferase labeling with UDP-[H^3]galactose; format: biochemical; details: 1 μg protein on PVD membrane, 24 hours at room temperature
T1 construct: from tissue; host or cells: bovine milk
T1 sequence (P08037 79-402 limits assumed): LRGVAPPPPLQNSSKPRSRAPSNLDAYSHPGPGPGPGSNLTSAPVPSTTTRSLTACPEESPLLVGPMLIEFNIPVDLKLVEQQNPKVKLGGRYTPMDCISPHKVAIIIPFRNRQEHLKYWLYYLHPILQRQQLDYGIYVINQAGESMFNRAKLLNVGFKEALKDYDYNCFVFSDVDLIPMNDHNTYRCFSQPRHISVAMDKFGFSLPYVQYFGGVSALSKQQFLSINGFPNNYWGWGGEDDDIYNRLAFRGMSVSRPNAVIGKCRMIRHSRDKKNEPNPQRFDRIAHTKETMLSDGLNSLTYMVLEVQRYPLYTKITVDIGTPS
Description: We also investigated whether the O-GlcNAc-serine residue in myoglobin could be selectively modified with a galactosyltransferase. Beta-1,4-galactosyltransferase is known to transfer galactose (Gal) from the sugar nucleotide UDP-Gal to the 4 position of an N-acetylglucosamine (GlcNAc) to form Galβ1,4GlcNAc. To determine if the O-glycosylated myoglobin can be modified with UDP-Gal, both wild-type and O-glycosylated myoglobin were resolved by SDS-PAGE and transferred to a PVD membrane. The membrane was then incubated with bovine milk galactosyltransferase and radioactive UDP-[H^3]-galactose at room temperature for 24 hours. See, e.g., K. Kamemura, et al., (2002), J. Biol. Chem. 277:19229. Incorporation of [H^3]-Gal was monitored by exposing the membrane to X-ray film. […] See FIG. 6, Panel B. FIG. 6, Panel B illustrates on-blot galactosyltransferase labeling glycomyoglobin with UDP-[H^3]galactose. Wild type myoglobin (1 μg) and Gly4→Compound A mutant myoglobin (1 μg) were resolved by 12% SDS-PAGE and transferred to a PVD membrane. The membrane was then treated with bovine milk galactosyltransferase (1 U), UDP-[H^3]galactose (0.5 μCi) and calf intestinal alkaline phosphatase (1 U) for 24 hours at room temperature. […]
as §1

[3] = system: E. coli DH10B cells; assay: growth rate of cells grown with the unnatural amino acid; details: 1 mM; cells transformed with mutRNACUA^Tyr, LW1RS and Z domain gene (Lys7TAG)
Method: E. coli DH10B cells cotransformed with pLEIZ and pBK-LW1RS were grown in minimal media containing 1% glycerol and 0.3 mM leucine (GMML media) with 25 μg/mL kanamycin, 34 μg/mL of chloramphenicol, and 1.0 mM p-acetyl-(±)-phenylalanine.
Cells transformed with the mutRNACUA^Tyr, LW1RS and Z domain gene (Lys7TAG) were grown in the presence of 1 mM p-acetyl-(±)-phenylalanine.

incorporation of [H^3]-Gal (X-ray film) [2] | Compound | lectin binding signal (A405) [1] | effect on growth rate of cells [3]
no detectable signal | wild-type myoglobin: wild-type myoglobin used for comparison | signal equivalent to negative control wells | –
– | CC(=O)c1ccc(CC(N)C(=O)O)cc1 (racemic) [p-acetyl-(±)-phenylalanine] | – | did not affect the growth rate of cells
